# Experimental data: PubChem BioAssay AID1996
# Settings: buffer; pH 7.4; 200.0 µM
row,Compound,solubility kinetic [µg/mL]
1,Cl.OCCN1CCN(CC/C=C2/c3ccccc3Sc3ccc(C(F)(F)F)cc32)CC1,60.1
2,COc1ccc(C(CNC(=O)c2cc3c(s2)CCCC3)N2CCOCC2)cc1 (centres undefined),36.4
3,Cc1cccc(-c2noc(-c3c(C)noc3C)n2)c1,< 0.2
4,Cc1cc(N2CCCC2)nc2ccccc12,31.6
5,CCOc1ccc2c(c1)[nH]c(=S)n2C,> 31.2
6,Cc1c(C)n(CCCN(C)C)c2ncnc(NCc3ccccc3)c12,> 50.6
7,Cl.NC(N)=NC(N)=Nc1cccc(Cl)c1,> 37.2
8,O=C(COC(=O)/C=C/c1cccc(F)c1)NC1CCCCCC1,5.6
9,CC1CN(c2ccc(S(=O)(=O)N3CCCC3)cn2)CC(C)O1 (centres undefined),> 48.8
10,COc1ccc(CSc2nc3ccccc3c(=O)[nH]2)cc1F,1.3
11,O=C(CCl)N(c1ccccc1)C1CCCCC1,36.6
12,COc1ccc(N2C(=O)CSC2c2ccccc2F)c(OC)c1 (centres undefined),45.9
13,CSc1nc(-c2ccccc2F)c(C#N)c(=O)n1C,20.7
14,COC(=O)[C@@H]1CCCN1Cc1nc(Cc2ccc(OC)c(OC)c2)no1,> 54.2
15,O=C1Nc2cc3c(cc2C1=O)sc1ccccc13,3.1
16,CC(NC(=O)CN1CCCC1)c1ccccc1 (centres undefined),> 34.8
17,COc1cccc(/C=C2\N=C(C3CCCCC3)OC2=O)c1OC,16.4

row,Compound,solubility kinetic [µg/mL]
1,Cc1ccc(Cl)c(NC(=O)CN2CCNC(=O)C2)c1Cl,> 47.4
2,Cc1cccc(N2C(=O)C3CCCN3C2=S)c1 (centres undefined),36.1
3,CCOC(=O)C1CCN(S(=O)(=O)c2c(C)noc2C)CC1,26.8
4,Cc1cc(C)c(C(=O)COC(=O)c2c(C)noc2C)cc1C,7.1
5,CCC(C(=O)OCC(=O)N1C(C)CCCC1C)c1ccccc1 (centres undefined),45.1
6,CCN(CC)S(=O)(=O)c1c(OC)cc(C)c(Cl)c1C,18.3
7,Cc1cc(C(=O)N2CCC(Cc3ccccc3)CC2)no1,36.7
8,CCCc1cc(=O)[nH]c(SCC(=O)N2CCOCC2)n1,> 44.6
9,CCO.C[C@H]1c2cccc(O)c2C(O)=C2C(=O)[C@]3(O)C(O)=C(C(N)=O)C(=O)[C@@H](N(C)C)[C@@H]3[C@@H](O)[C@@H]21.Cl.O,> 76.9
10,O=S(=O)(c1cccs1)N1CCC2(CC1)OCCO2,> 43.4
11,Cc1ccc(C(=O)NC(C)C2CC3CCC2C3)c(C)c1 (centres undefined),29.9
12,Cn1c(=O)n(CC(=O)O)c(=O)c2c1nc1n2CCCN1Cc1ccccc1,51.3
13,O=[N+]([O-])c1cc(F)c(N2CCCC2)cc1Br,1.6
14,O=C(c1cc(-c2ccc(O)cc2)on1)N1CCCCCC1,> 42.9
15,COCCNC(=O)CN1C(=O)NC2(CCOc3ccccc32)C1=O (centres undefined),42.9
16,O=C(CN1C(=O)NC2NC(=O)NC21)NC1CCCCC1 (centres undefined),> 42.2
17,O=C(NN1CCOCC1)c1ccc(Br)s1,> 43.7

# Results, then the compound that gave them:
row,solubility kinetic [µg/mL],Compound
1,52.3,Cc1ccc(S(=O)(=O)NC(=O)Nc2ccc(OC(F)F)cc2)cc1
2,2.2,Cc1cc(C)c2[nH]c(C(=O)Nc3ccc4c(c3)OCO4)cc2c1
3,50.8,Cc1cccc(NS(=O)(=O)c2ccc(C(=O)N3CCC3)cc2)c1C
4,2.9,Cc1ccc(NC(=O)NCc2ccc3[nH]c(C)cc3c2)cc1
5,35.3,CN=c1sc(C(=O)Nc2ccccc2)c(C)n1C
6,11.4,CCN(CC)S(=O)(=O)c1ccc(N2CCOCC2)c(NC(=O)c2sccc2C)c1
7,2.4,CS(=O)(=O)/C(C#N)=C/c1c(-c2ccccc2)nc2n1CCS2
8,> 54.4,O=C(CN1C(=O)c2ccccc2S1(=O)=O)NCCc1ccc(F)cc1
9,1.4,Cc1ccc(/C=C/c2ccc3cccc(O)c3n2)s1
10,> 50.2,Cc1nnc(SCC(=O)Nc2ccc(N(C)C)cc2)n(N)c1=O
11,< 0.3,CCOC(=O)c1ccc(NC(=S)NCc2ccccc2)cc1
12,17.1,O=C(CCNC(=O)c1ccco1)Nc1ccc(F)c(Cl)c1
13,> 41.7,Cc1nn(C)c(Cl)c1/C=N/OC(=O)c1ccccc1
14,10.3,Cn1c(=O)cc(Nc2ccccc2)[nH]c1=O
15,60.4,O=C(Nc1cccc(S(=O)(=O)N2CCCC2)c1)c1cncc(Br)c1
16,2.4,O=c1[nH]c(-c2ccccc2)nc(-c2ccccc2)c1Cl
17,> 64.1,O=[N+]([O-])c1cc(S(=O)(=O)N2CCOCC2)ccc1NS(=O)(=O)c1ccccc1
18,2,CCOC(=O)c1c(C)[nH]c(C(=O)OCc2ccc(F)cc2)c1C
19,< 0.6,COc1ccc(N2C(=O)c3cccc4cccc(c34)C2=O)cc1
20,> 49.6,COc1ccccc1C(=O)NCCC(=O)N(C)Cc1ccc(C)o1
21,8.6,Cc1ccc(N2CC(=O)N(c3ccc(C)cc3)CC2=O)cc1
22,3.5,CC(=O)Nc1cccc(C(=O)OCC(=O)NC(=O)c2ccccc2)c1
23,> 73.7,Cc1cccc(NC(=O)CN(CC2CCCO2)C(=O)c2cc(S(=O)(=O)N(C)C)ccc2F)c1C (centres undefined)
24,> 34.8,COc1ccc(-n2c(C)cc(=O)[nH]c2=O)cc1
25,39.5,Cc1ccccc1NC(=O)Cc1c[nH]c2ccccc12

row,solubility kinetic [µg/mL],Compound
1,5.2,CC(=O)Nc1ccc(/C=C(\C#N)S(=O)(=O)c2ccc(C)cc2)cc1
2,11,CCC(=O)Nc1cc(-c2cc3ccccc3oc2=O)ccc1OC
3,33.8,O=C(CCSCc1ccccc1)Nc1ccc2c(c1)OCCO2
4,> 44.3,CN1CCN(c2ccc(NC(=O)c3ccccc3)cc2)CC1
5,< 0.7,O=C(COC(=O)/C=C/c1ccc(C(F)(F)F)cc1)NC1CCCC1
6,> 69.1,O=C(COC(=O)Cc1ccc(S(=O)(=O)N2CCOCC2)s1)Nc1ccc(F)cc1F
7,48.6,COc1cccc(N2CCN(C(=O)c3ccc4nc[nH]c4c3)CC2)c1
8,13,Cc1cc(C)c(OCC(=O)N2CC=C(c3ccccc3)CC2)c(C)c1
9,< 0.7,COc1ccc(C(=O)CCC(=O)Nc2ccc(Cl)cc2)cc1
10,5.5,Cn1c(N)c(C(=O)COC(=O)/C=C/c2ccccc2F)c(=O)n(C)c1=O
11,< 0.3,O=C(Nc1cccc(F)c1)Nc1ccc2c(c1)C(=O)OC2
12,43.9,COc1ccc(CC(=O)Nc2ccccc2-c2ccccc2)cc1OC
13,> 46.6,O=C(CCNS(=O)(=O)c1ccccc1)N1CCCCCC1
14,7.4,C=CCOC(=O)C1=C(C)NC(=O)NC1c1ccc(OCC)cc1 (centres undefined)
15,10.2,COc1cccc(C(=O)O/N=C(\N)c2ccc(C)cc2)c1
16,14.6,C#Cc1ccc(C(=O)NCc2ccc(N3CCCC3=O)cc2)cc1
17,< 0.3,O=C1N/C(=C/c2cccs2)C(=O)N1Cc1ccc(F)cc1
18,35.6,O=C(Cn1cnc2ccccc2c1=O)NCc1cccs1
19,> 41.2,CCN(/C=N/S(=O)(=O)c1ccc(Cl)cc1)CC
20,2.1,Cc1occc1C(=O)Nc1ccc(OCc2ccccc2)cc1
21,14.8,Cc1ccc(NC(=O)Cn2cc([N+](=O)[O-])nc2C)cc1C
22,25.1,Cc1cc(C(=O)O/N=C(\N)c2ccncc2)ccc1[N+](=O)[O-]
23,1.1,Cc1cccc(/C(N)=N/OC(=O)c2cccc3ccccc23)c1
24,39.5,COc1ccccc1C(=O)C1CCCN(Cc2cccc3nccnc23)C1 (centres undefined)
25,44.2,CCN(CC)c1ccc(CNCc2cccs2)cc1.Cl
